# Measured values from patent US5559152A, “Pharmaceutical composition having antiacoholic activity” (priority 1994, dated 1996).
# Where two headings read alike, the source gives them in different places.
# How the values were obtained:
# [1] = test system: rats subjected to gamma-irradiation; conditions: 16 Gy, 100 mg/kg i.p. 30 min before irradiation
# Protocol: This preparation was given i.p. to a group of 10 animals 30 min. before the irradiation in the dosage of 100 mg/kg of animal weight.
# stomach mucosa [2] = test system: stomach mucosa
# Protocol: The diagnoses were verified on the basis of all presently used methods for diagnosing gastroenterological diseases. […] Pentagastrin in the dosage of 6 μg/kg of body weight and histamine in the dosage of 0.1 ml of 0.1% solution were used as comparative preparations. […] Having deciphered pH-gramms, pH levels, "alkaline time" (AT), hydrogen ions secretion rate (HISR), kinetic function of acid formation (KFA) were determined.
# For this purpose the characteristics of stomach acid-forming function were studied in these volunteers after administering said preparations in different sequences.
# patients = conditions: background; cited from earlier work
# [3] = test system: stomach secretion in patients suffering chronic gastritis; experiment: comparative study of pentagastrin and present composition in patients suffering chronic gastritis; format: in vivo, human
# Protocol: With intragastric pH-metry initial levels of pH in these patients varied from 3.5 to 6.8, and after Noller test these levels increased to alkaline values (8-9) which levels remained the same during the test period (1-1.5 hours).
# [4] = test system: stomach secretion in patients suffering chronic gastritis with pentagastrinrefractive achlorhydria; experiment: stomach secretion in patients with pentagastrinrefractive achlorhydria; format: in vivo, human; conditions: stimulated secretion; M ± m
# Protocol: Additionally intrastomach pH-metry was carried out (on an empty stomach and after taking the present composition or comparative preparations) using acidograph with aspiratory pH probe. Before introducing the present composition and comparative preparations and after that pH levels were registered and "alkaline time" was determined using Noller test. Having deciphered pH-gramms, pH levels, "alkaline time" (AT), hydrogen ions secretion rate (HISR), kinetic function of acid formation (KFA) were determined.
# The effect of the present composition on stomach secretion in patients of this group has been studied.
# [5] = test system: stomach secretion in patients suffering chronic gastritis accompanied by stomach and duodenum ulcers; experiment: stomach secretion in patients with chronic gastritis accompanied by stomach and duodenum ulcers, pentagastrin after present composition; format: in vivo, human
# Protocol: The diagnoses were verified on the basis of all presently used methods for diagnosing gastroenterological diseases. […] Additionally intrastomach pH-metry was carried out (on an empty stomach and after taking the present composition or comparative preparations) using acidograph with aspiratory pH probe. Before introducing the present composition and comparative preparations and after that pH levels were registered and "alkaline time" was determined using Noller test. Having deciphered pH-gramms, pH levels, "alkaline time" (AT), hydrogen ions secretion rate (HISR), kinetic function of acid formation (KFA) were determined.
# [6] = test system: stomach and liver tissues; conditions: in 100 mg of tissue; 3.5 mg/kg; M ± m
# Protocol: (§1) Stomachs were washed with water through cardiac opening and the washing from the antral opening were collected. Stomach contents (5 ml of washings) were used to determine pH, pepsin and total protein content. Stomach was refilled with water, frozen in cryostate and serial section having the thickness of 6-8 microns were made beginning from low curvature and parallel to stomach longer axis. In the sections of stomach bottom and body having a total weight of 50-90 mg, protein and nucleic acids content was determined.
# stomach mucosa [7] = conditions: mice, 3.5 mg/kg intrastomach, 35-45 min; M ± m
# Protocol: as §1
# [8] = test system: rats (acute alcohol intoxication)
# succinate dehydrogenase = conditions: mice; 4 mg/kg intrastomach, 40 min; M ± m
# stomach mucosa [9] = conditions: 3.6 mg/kg, dogs
# [10] = test system: rats subjected to gamma-irradiation; conditions: rodents; cited from earlier work
# [11] = histamine stimulated secretion, an hour after present composition
# [12] = secretion in 1 h after histamine injection
# [13] = secretion in interval between stimulators (after histamine)
# [14] = stimulated secretion, pentagastrin a day after present composition, M ± m
structure (smiles),measurement,setting,value
N[C@@H](CCC(=O)N[C@@H](CS)C(=O)NCC(=O)O)C(=O)O [glutathione],mortality,[1],100%
same,life-time of rats,[1]; control 6.9 days,10.2 days
NCCc1c[nH]cn1 [histamine],"effects on stomach acid-forming function (duration and intensity), present composition versus histamine",stomach mucosa [2]; Tables 23 and 24,identical effects on stomach acid-forming function
same,Free hydrochloric acid,"stomach mucosa [2]; histamine secretion, M ± m",6.5 ± 0.27 meq./liter
same,Total hydrochloric acid,"stomach mucosa [2]; histamine secretion, M ± m",8.00 ± 0.29 meq./liter
same,Free hydrochloric acid,stomach mucosa [2]; [11],3.90 ± 0.11 meq/liter
same,Total hydrochloric acid,stomach mucosa [2]; [11],4.70 ± 0.12 meq/liter
same,Free hydrochloric acid,stomach mucosa [2]; [12],6.92 ± 0.73 meq/liter
same,Total hydrochloric acid,stomach mucosa [2]; [12],4.6 ± 0.5 meq/liter
same,Free hydrochloric acid,stomach mucosa [2]; [13],15.3 ± 1.4 meq./liter
same,Total hydrochloric acid,stomach mucosa [2]; [13],15.8 ± 1.6 meq./liter
same,complications / side effects,patients,"nettle-rash,larynx edema, anaphylactic shock"
CSCC[C@H](NC(=O)[C@H](Cc1c[nH]c2ccccc12)NC(=O)CCNC(=O)OC(C)(C)C)C(=O)N[C@@H](CC(=O)O)C(=O)N[C@@H](Cc1ccccc1)C(N)=O [pentagastrin],"acidity, pepsin content, hydrochloric acid debit and pepsin debit",[3]; 12 refractory patients,remained at zero levels
same,intragastric pH after stimulation,"[3]; 12 refractory patients, from 6.51±1.06, p<0.25",4.69±0.92
same,AT reduction in Noller test,"[3]; 12 refractory patients, p<0.5",did not cause AT reduction
same,patients refractory,"[3]; chronic gastritis, pentagastrin 6 μg/kg",12 of 50
same,"effect on stomach secretion, comparison of the both preparations","[3]; patients suffering chronic gastritis, p<0.5",nearly the same effect on stomach secretion
same,Acid secretion,[4],15.25 ± 0.86%
same,Acidity,[4],0 ± 0 mmol per liter
same,Hydrochloric acid debit,[4],0 ± 0 mmol per hour
same,Pepsin content,[4],0 ± 0 mg per ml
same,Pepsin debit,[4],0 ± 0 mg per hour
same,Stomach contents volume,[4],0.067 ± 0.15 liter per hour
same,"effect on stomach secretion, comparison of the both preparations","[5]; chronic gastritis accompanying stomach and duodenum ulcers, p<0.5",nearly the same effect on stomach secretion
same,effects when present composition administered in a week after pentagastrin,[5]; p<0.5,nearly identical
same,Pepsin debit,"[5]; stimulated secretion, pentagastrin a day after present composition, M ±",5.0 ± 1.05 mg/h
same,Hydrochloric acid debit,[5]; [14],17 ± 1.44 mmol/h
same,Secretion volume,[5]; [14],178 ± 12.7 mL
same,pH,[5]; [14],1.4 ± 0.14
O=C(O)CCC(=O)O [succinic acid],Liver DNA content,[6],15.6 ± 2.7 µg
same,Liver RNA content,[6],74.5 ± 4.4 µg
same,Liver protein content,[6],14.4 ± 1.2 mg
same,Stomach DNA content,[6],13.1 ± 1.1 µg
same,Stomach RNA content,[6],70.0 ± 4.7 µg
same,Stomach protein content,[6],12.1 ± 0.9 mg
same,Pepsin amount in stomach contents,stomach mucosa [7],18.7 ± 2.1 µg
same,Total protein amount in stomach contents,stomach mucosa [7],3.9 ± 0.9 mg
same,pH of stomach contents,stomach mucosa [7],5.7 ± 0.2
same,"Duration of on-side position, single ethanol injection","[8]; 1.85 mg/kg intrastomach 40 min before 25% ethanol 3.5 g/kg i.p., M ± m",1.6 ± 1.1 min
same,"Duration of on-side position, repeated ethanol injection","[8]; 1.85 mg/kg intrastomach, second 25% ethanol 3 g/kg, 60 min after leaving on-side position, M ± m",24.9 ± 3.8 min
same,alcoprotective detoxifying activity compared,"[8]; after a single ethanol injection, versus claimed composition",higher alcoprotective detoxifying activity than the claimed composition
same,succinate dehydrogenase activity in liver,succinate dehydrogenase,21.8 ± 0.6 nanomoles of formazan of p-nit
same,succinate dehydrogenase activity in stomach,succinate dehydrogenase,26.3 ± 3.0 nanomoles of formazan of p-nit
same,succinate dehydrogenase activity of lymphocytes,succinate dehydrogenase,643. ± 5.1 granules of formazan of p-nitr
same,time after introduction at which effect on stomach secretion abated,stomach mucosa [9],20 min
same,stimulation of stomach glands and fermentative activity,stomach mucosa [9]; versus present composition,less expressed results
same,effective dosage (radioprotective),[10],2.7 g/kg of animal weight
